Assay: xn = mol fraction of the nth substance listed

COC(=O)CC(C)=O + CC(C)CO
viscosity [mPa·s], 101.3 kPa
Details | x1 = 0.1046 | x1 = 0.2052 | x1 = 0.3095 | x1 = 0.4094 | x1 = 0.5075 | x1 = 0.6057 | x1 = 0.7026 | x1 = 0.8059 | x1 = 0.902
298.15 K | 2.24 | 1.81 | 1.598 | 1.463 | 1.385 | 1.352 | 1.35 | 1.38 | 1.449
303.15 K | 1.944 | 1.591 | 1.412 | 1.303 | 1.241 | 1.221 | 1.223 | 1.251 | 1.312
308.15 K | 1.696 | 1.407 | 1.257 | 1.17 | 1.124 | 1.108 | 1.114 | 1.143 | 1.198

CCCCCCCCn1cc[n+](C)c1.[Cl-] + CO
298.15 K, 101 kPa
Details | viscosity [mPa·s]
x2 = 0.0565 | 10350
x2 = 0.1686 | 3456
x2 = 0.3525 | 534

Clc1cccc(Cl)c1 + Nc1cccc(Cl)c1
viscosity [mPa·s], 100 kPa
Details | x2 = 0.1079 | x2 = 0.2255 | x2 = 0.3102 | x2 = 0.4128 | x2 = 0.5135 | x2 = 0.6122 | x2 = 0.7094 | x2 = 0.8047 | x2 = 0.8908
303.15 K | 1.313 | 1.712 | 1.998 | 2.341 | 2.675 | 2.999 | 3.318 | 3.627 | 3.905
308.15 K | 1.225 | 1.581 | 1.836 | 2.142 | 2.439 | 2.729 | 3.012 | 3.286 | 3.532
313.15 K | 1.141 | 1.455 | 1.678 | 1.946 | 2.208 | 2.462 | 2.708 | 2.946 | 3.162
318.15 K | 1.055 | 1.326 | 1.519 | 1.752 | 1.975 | 2.193 | 2.405 | 2.611 | 2.795

CCCCCCCCCCCC(=O)OC + CC(C)C1CCCCC1
viscosity [mPa·s], 100 kPa
Details | x2 = 0.1008 | x2 = 0.2004 | x2 = 0.3006 | x2 = 0.4002 | x2 = 0.5004 | x2 = 0.6003 | x2 = 0.7001 | x2 = 0.8 | x2 = 0.9001
293.15 K | 2.862 | 2.608 | 2.365 | 2.139 | 1.93 | 1.728 | 1.546 | 1.378 | 1.229
298.15 K | 2.558 | 2.342 | 2.133 | 1.937 | 1.756 | 1.579 | 1.419 | 1.271 | 1.137
303.15 K | 2.303 | 2.117 | 1.936 | 1.765 | 1.606 | 1.45 | 1.308 | 1.176 | 1.056
308.15 K | 2.088 | 1.926 | 1.768 | 1.617 | 1.476 | 1.338 | 1.211 | 1.093 | 0.984
313.15 K | 1.904 | 1.759 | 1.621 | 1.488 | 1.363 | 1.239 | 1.126 | 1.018 | 0.92
318.15 K | 1.743 | 1.616 | 1.493 | 1.375 | 1.262 | 1.152 | 1.05 | 0.952 | 0.863
323.15 K | 1.602 | 1.49 | 1.38 | 1.274 | 1.174 | 1.074 | 0.981 | 0.893 | 0.812

CCOc1ccccc1 + C1CCOC1
viscosity [mPa·s], 101.33 kPa
Details | x1 = 0.031 | x1 = 0.072 | x1 = 0.117 | x1 = 0.197 | x1 = 0.246 | x1 = 0.326 | x1 = 0.492 | x1 = 0.695 | x1 = 0.899
298 K | 0.475 | 0.493 | 0.515 | 0.555 | 0.581 | 0.627 | 0.736 | 0.891 | 1.067
303 K | 0.451 | 0.468 | 0.487 | 0.524 | 0.547 | 0.587 | 0.684 | 0.824 | 0.985
308 K | 0.431 | 0.447 | 0.464 | 0.496 | 0.518 | 0.554 | 0.642 | 0.766 | 0.908

COc1ccc(C=O)cc1 + Cc1cc(C)cc(C)c1
viscosity [mPa·s], 101 kPa
Details | x1 = 0.1142 | x1 = 0.2248 | x1 = 0.3321 | x1 = 0.4361 | x1 = 0.537 | x1 = 0.635 | x1 = 0.7302 | x1 = 0.8227 | x1 = 0.9126
303.15 K | 0.686 | 0.766 | 0.825 | 1.044 | 1.283 | 1.581 | 1.77 | 2.826 | 2.963
308.15 K | 0.645 | 0.713 | 0.7707 | 0.96 | 1.148 | 1.395 | 1.582 | 2.452 | 2.665
313.15 K | 0.438 | 0.487 | 0.547 | 0.676 | 0.825 | 1 | 1.094 | 1.859 | 1.969
318.15 K | 0.392 | 0.435 | 0.5 | 0.614 | 0.733 | 0.9 | 1 | 1.517 | 1.713

COC(=O)CC(C)=O + CCCCCO
viscosity [mPa·s], 101.33 kPa
Details | x1 = 0.1031 | x1 = 0.2056 | x1 = 0.3072 | x1 = 0.4083 | x1 = 0.5091 | x1 = 0.6099 | x1 = 0.7075 | x1 = 0.8063 | x1 = 0.9019
298.15 K | 2.467 | 2.053 | 1.796 | 1.637 | 1.52 | 1.439 | 1.408 | 1.408 | 1.449
303.15 K | 2.156 | 1.809 | 1.588 | 1.453 | 1.356 | 1.294 | 1.268 | 1.275 | 1.313
308.15 K | 1.903 | 1.606 | 1.419 | 1.3 | 1.223 | 1.175 | 1.156 | 1.164 | 1.201

CCCCCC[n+]1ccn(C)c1.O=S(=O)([O-])C(F)(F)F + CC(C)O
Details | viscosity [mPa·s]
298.15 K, 100 kPa, x2 = 0.1282 | 99.47

CCOC(C)=O + CC#N
303.15 K, 101.33 kPa
Details | viscosity [mPa·s]
x2 = 0.0931 | 0.3988
x2 = 0.1928 | 0.3934
x2 = 0.298 | 0.3881
x2 = 0.3925 | 0.3819
x2 = 0.4985 | 0.3753
x2 = 0.5974 | 0.3676
x2 = 0.6982 | 0.3591
x2 = 0.8001 | 0.3486
x2 = 0.8988 | 0.3402

Source: the CheMixHub viscosity set
